In publication PMC10572347, “Structure–Activity Relationships and Antiplasmodial Potencies of Novel 3,4-Disubstituted 1,2,5-Oxadiazoles” (International Journal of Molecular Sciences, 2023):
Where two headings read alike, the source gives them in different places.

Key:
P. falciparum NF54 = assay: In vitro microplate assay against P. falciparum (3H-hypoxanthine incorporation); format: cell-based, Plasmodium falciparum; details: for S.I. = IC50 (Cyt.)/IC50 (P.f.NF54): L-6 cells vs P.f. NF54; for IC50: average of four determinations, read-out: P.f. NF54 IC50
Protocol: In vitro activity against the erythrocytic stages of P. falciparum was determined using a ^3H-hypoxanthine incorporation assay, using the drug sensitive NF54 strain [37]. […] The 96-well plates were incubated in a humidified atmosphere at 37 °C, 4% CO2, 3% O2 and 93% N2. After 48 h, 0.05 mL of ^3H-hypoxanthine (=0.5 µCi) was added to each well of the plate. The plates were incubated for a further 24 h under the same conditions. The plates were then harvested with a Betaplate cell harvester (Wallac, Zurich, Switzerland). The red blood cells were transferred onto a glass fiber filter and washed with distilled water. The dried filters were inserted into a plastic foil with 10 mL of scintillation fluid and counted in a Betaplate liquid scintillation counter (Wallac, Zurich, Switzerland). The IC50 values were calculated from sigmoidal inhibition curves by linear regression using Microsoft Excel. Chloroquine (Sigma C6628) was used as control.

[1] = In vitro cytotoxicity with L-6 cells (resazurin); format: cell-based, rat; details: rat
Protocol: Serial drug dilutions of 11 3-fold dilution steps covering a range from 100 to 0.002 μg/mL were prepared. After 70 h of incubation, the plates were inspected under an inverted microscope to assure the growth of the controls and sterile conditions. […] The plates were read with a Spectramax Gemini XS microplate fluorometer (Molecular Devices Cooperation, Sunnyvale, CA, USA) using an excitation wavelength of 536 nm and an emission wavelength of 588 nm. The IC50 values were calculated by linear regression from the sigmoidal dose inhibition curves using SoftmaxPro software Version 8.2.1 (Molecular Devices Cooperation, Sunnyvale, CA, USA). Podophyllotoxin (Sigma P4405) was used as control.

CYP3A4 = CYP3A4 (Homo sapiens, UniProt P08684); assay: Cytochrome P450 3A4 inhibition assay (P450-Glo, Luciferin-IPA); details: recombinant human CYP3A4 Supersomes (+ oxidoreductase + b5), pH 7.4, probe Luciferin-IPA
Sequence of CYP3A4 (P08684 2-503 limits assumed): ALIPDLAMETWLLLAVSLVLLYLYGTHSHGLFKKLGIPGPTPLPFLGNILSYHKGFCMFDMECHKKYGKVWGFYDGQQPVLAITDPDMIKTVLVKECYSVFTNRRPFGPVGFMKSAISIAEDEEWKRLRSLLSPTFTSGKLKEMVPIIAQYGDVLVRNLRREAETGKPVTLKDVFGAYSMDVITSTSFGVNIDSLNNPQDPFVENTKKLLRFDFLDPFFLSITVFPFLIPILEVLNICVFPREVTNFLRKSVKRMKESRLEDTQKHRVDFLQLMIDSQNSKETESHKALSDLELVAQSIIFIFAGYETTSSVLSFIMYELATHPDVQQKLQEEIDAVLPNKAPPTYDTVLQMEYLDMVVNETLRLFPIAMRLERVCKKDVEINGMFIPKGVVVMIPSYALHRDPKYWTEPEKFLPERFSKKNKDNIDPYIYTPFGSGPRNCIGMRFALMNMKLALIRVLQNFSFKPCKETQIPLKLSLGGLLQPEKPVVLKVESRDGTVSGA
Protocol: The CYP3A4 inhibition assay was performed using 96-well white plates (Greiner Bio-One) at a pH of 7.4. […] Stock solutions were further diluted to a final concentration of 20 µM using water (HPLC grade). The luciferin IPA stock solution (3 mM) was diluted to a final concentration of 0.3 mM using water (HPLC grade). The CYP3A4 reaction mixture was prepared by mixing water (HPLC grade) with potassium phosphate buffer (1 M), luciferin IPA (0.3 mM) and CYP3A4 membrane (1 pmol/µL). The control reaction mixture was prepared using water (HPLC grade), potassium phosphate buffer (1 M), luciferin IPA (0.3 mM) and membrane without CYP activity (1 pmol/µL). Solutions A and B of the NADPH regeneration system were mixed and HPLC grade water was added. The reconstituted luciferin detection reagent was prepared by mixing the reconstituted buffer with esterase with the luciferin detection reagent. Then, solutions of test compounds and standard were added to the wells of the 96-well white plate; each was tested in triplicate. The CYP3A4 reaction mixture was added to each well and the plate was incubated for 10 min at room temperature. After that, the NADPH regeneration system was added, inducing the reaction followed by an incubation time of 10 min at ambient temperature. By adding the reconstituted luciferin detection reagent, the reaction was terminated and a luminescent signal was formed. Luminescence was measured by a SpectraMax M3 UV plate reader (Molecular Devices). The relative light units (RLU) were received from a calibration curve with beetle luciferin. […] The CYP3A4 inhibition (%) was calculated from the RLU.

[2] = Plasmodium falciparum, NF54, chloroquine-sensitive strain NF54
[3] = chloroquine-sensitive strain NF54

## O=C(Nc1nonc1-c1ccc([N+](=O)[O-])cc1)c1ccccc1 [Compound 37, N-[4-(4-Nitrophenyl)-1,2,5-oxadiazol-3-yl]benzamide]
P. falciparum NF54
  S.I. = IC50 (Cyt.)/IC50 (P.f.NF54): 6.694
P. falciparum NF54; [2]
  IC50: 1.81 µM
other
  melting point: 208 °C
[1]
  IC50 at 72 h: 12.2 µM
CYP3A4
  inhibition at 10 min, 20 µM: 46%

## Cc1cccc(C(=O)Nc2nonc2-c2ccc([N+](=O)[O-])cc2)c1 [Compound 38, 3-Methyl-N-[4-(4-nitrophenyl)-1,2,5-oxadiazol-3-yl]benzamide]
P. falciparum NF54; [2]
  IC50: 0.99 µM
[1]
  IC50 at 72 h: 3.47 µM
CYP3A4
  inhibition at 10 min, 20 µM: 68%

## O=C(Nc1nonc1-c1ccc([N+](=O)[O-])cc1)c1cccc(F)c1 [Compound 39, 3-Fluoro-N-[4-(4-nitrophenyl)-1,2,5-oxadiazol-3-yl]benzamide]
P. falciparum NF54
  S.I. = IC50 (Cyt.)/IC50 (P.f.NF54): 0.809
P. falciparum NF54; [2]
  IC50: 5.33 µM
[1]
  IC50 at 72 h: 4.31 µM
CYP3A4
  inhibition at 10 min, 20 µM: 43%

## O=C(Nc1nonc1-c1ccc([N+](=O)[O-])cc1)c1cccc(C(F)(F)F)c1 [Compound 40, N-[4-(4-Nitrophenyl)-1,2,5-oxadiazol-3-yl]-3-(trifluoromethyl)benzamide]
P. falciparum NF54
  S.I. = IC50 (Cyt.)/IC50 (P.f.NF54): 0.473
P. falciparum NF54; [2]
  IC50: 1.98 µM
other
  melting point: 147 °C
[1]
  IC50 at 72 h: 0.936 µM
CYP3A4
  inhibition at 10 min, 20 µM: 82%

## O=C(Nc1nonc1-c1cccc([N+](=O)[O-])c1)c1ccccc1 [Compound 41, N-[4-(3-Nitrophenyl)-1,2,5-oxadiazol-3-yl]benzamide]
P. falciparum NF54
  S.I. = IC50 (Cyt.)/IC50 (P.f.NF54): 0.666
P. falciparum NF54; [2]
  IC50: 9.11 µM
other
  melting point: 179 °C
[1]
  IC50 at 72 h: 6.07 µM
CYP3A4
  inhibition at 10 min, 20 µM: 82%

## Cc1cccc(C(=O)Nc2nonc2-c2cccc([N+](=O)[O-])c2)c1 [Compound 42, 3-Methyl-N-[4-(3-nitrophenyl)-1,2,5-oxadiazol-3-yl]benzamide]
P. falciparum NF54
  S.I. = IC50 (Cyt.)/IC50 (P.f.NF54): 0.464
P. falciparum NF54; [2]
  IC50: 11.5 µM
other
  melting point: 158 °C
[1]
  IC50 at 72 h: 5.32 µM
CYP3A4
  inhibition at 10 min, 20 µM: 87%

## O=C(Nc1nonc1-c1cccc([N+](=O)[O-])c1)c1cccc(F)c1 [Compound 43, 3-Fluoro-N-[4-(3-nitrophenyl)-1,2,5-oxadiazol-3-yl]benzamide]
P. falciparum NF54
  S.I. = IC50 (Cyt.)/IC50 (P.f.NF54): 0.104
P. falciparum NF54; [2]
  IC50: 26.7 µM
other
  melting point: 174 °C
[1]
  IC50 at 72 h: 2.77 µM
CYP3A4
  inhibition at 10 min, 20 µM: 79%

## O=C(Nc1nonc1-c1cccc([N+](=O)[O-])c1)c1cccc(C(F)(F)F)c1 [Compound 44, N-[4-(3-Nitrophenyl)-1,2,5-oxadiazol-3-yl]-3-(trifluoromethyl)benzamide]
P. falciparum NF54
  S.I. = IC50 (Cyt.)/IC50 (P.f.NF54): 0.198
P. falciparum NF54; [2]
  IC50: 8.64 µM
[1]
  IC50 at 72 h: 1.71 µM
CYP3A4
  inhibition at 10 min, 20 µM: 94%

## O=C(Nc1nonc1-c1ccc(Cl)cc1)c1cccc(F)c1 [Compound 46, N-[4-(4-Chlorophenyl)-1,2,5-oxadiazol-3-yl]-3-fluorobenzamide]
P. falciparum NF54
  S.I. = IC50 (Cyt.)/IC50 (P.f.NF54): 1.155
P. falciparum NF54; [2]
  IC50: 10.1 µM
other
  melting point: 180 °C
[1]
  IC50 at 72 h: 11.7 µM

## O=C(Nc1nonc1-c1ccc(Cl)cc1)c1cccc(C(F)(F)F)c1 [Compound 48, N-[4-(4-Chlorophenyl)-1,2,5-oxadiazol-3-yl]-3-(trifluoromethyl)benzamide]
P. falciparum NF54
  S.I. = IC50 (Cyt.)/IC50 (P.f.NF54): 0.599
P. falciparum NF54; [2]
  IC50: 8.44 to 17.7 µM
P. falciparum NF54; [3]
  IC50: 8.44 µM
[1]
  IC50 at 72 h: 5.06 µM

## Cc1cccc(C(=O)Nc2nonc2-c2ccc(F)cc2)c1 [Compound 49, N-[4-(4-Fluorophenyl)-1,2,5-oxadiazol-3-yl]-3-methylbenzamide]
P. falciparum NF54
  S.I. = IC50 (Cyt.)/IC50 (P.f.NF54): 4.328
[1]
  IC50 at 72 h: 35.1 µM
CYP3A4
  inhibition at 10 min, 20 µM: 84%

## COc1ccc(C(=O)Nc2nonc2-c2ccc([N+](=O)[O-])cc2)cc1Cl [Compound 53, 3-Chloro-4-methoxy-N-[4-(4-nitrophenyl)-1,2,5-oxadiazol-3-yl]benzamide]
P. falciparum NF54; [2]
  IC50: 0.323 µM
other
  melting point: 261 °C
[1]
  IC50 at 72 h: 3.35 µM

## COc1ccc(C(=O)Nc2nonc2-c2cccc([N+](=O)[O-])c2)cc1Cl [Compound 54, 3-Chloro-4-methoxy-N-[4-(3-nitrophenyl)-1,2,5-oxadiazol-3-yl]benzamide]
P. falciparum NF54
  S.I. = IC50 (Cyt.)/IC50 (P.f.NF54): 0.932
P. falciparum NF54; [2]
  IC50: 5.92 µM
other
  melting point: 248 °C
[1]
  IC50 at 72 h: 5.52 µM

## Nc1ccc(-c2nonc2NC(=O)c2ccccc2)cc1 [Compound 55, N-[4-(4-Aminophenyl)-1,2,5-oxadiazol-3-yl]benzamide]
P. falciparum NF54
  S.I. = IC50 (Cyt.)/IC50 (P.f.NF54): 16.62
P. falciparum NF54; [2]
  IC50: 7.42 µM
other
  melting point: 169 °C
[1]
  IC50 at 72 h: 123 µM

## Cc1cccc(C(=O)Nc2nonc2-c2ccc(N)cc2)c1 [Compound 56, N-[4-(4-Aminophenyl)-1,2,5-oxadiazol-3-yl]-3-methylbenzamide]
P. falciparum NF54
  S.I. = IC50 (Cyt.)/IC50 (P.f.NF54): 15.70
P. falciparum NF54; [2]
  IC50: 6.83 µM
other
  melting point: 159 °C
[1]
  IC50 at 72 h: 107 µM

## Nc1ccc(-c2nonc2NC(=O)c2cccc(F)c2)cc1 [Compound 57, N-[4-(4-Aminophenyl)-1,2,5-oxadiazol-3-yl]-3-fluorobenzamide]
P. falciparum NF54
  S.I. = IC50 (Cyt.)/IC50 (P.f.NF54): 18.90
P. falciparum NF54; [2]
  IC50: 10.5 µM
other
  melting point: 189 °C
[1]
  IC50 at 72 h: 198 µM

## Nc1ccc(-c2nonc2NC(=O)c2cccc(C(F)(F)F)c2)cc1 [Compound 58, N-[4-(4-Aminophenyl)-1,2,5-oxadiazol-3-yl]-3-(trifluoromethyl)benzamide]
P. falciparum NF54
  S.I. = IC50 (Cyt.)/IC50 (P.f.NF54): 3.548
P. falciparum NF54; [2]
  IC50: 9.26 µM
other
  melting point: 154 °C
[1]
  IC50 at 72 h: 32.9 µM

## COc1ccc(C(=O)Nc2nonc2-c2ccc(N)cc2)cc1Cl [Compound 59, N-[4-(4-Aminophenyl)-1,2,5-oxadiazol-3-yl]-3-chloro-4-methoxybenzamide]
P. falciparum NF54
  S.I. = IC50 (Cyt.)/IC50 (P.f.NF54): 31.54
P. falciparum NF54; [2]
  IC50: 3.14 µM
other
  melting point: 250 °C
[1]
  IC50 at 72 h: 98.9 µM

## Nc1cccc(-c2nonc2NC(=O)c2ccccc2)c1 [Compound 60, N-[4-(3-Aminophenyl)-1,2,5-oxadiazol-3-yl]benzamide]
P. falciparum NF54
  S.I. = IC50 (Cyt.)/IC50 (P.f.NF54): 4.039
other
  melting point: 178 °C
[1]
  IC50 at 72 h: 217 µM

## Nc1cccc(-c2nonc2NC(=O)c2cccc(F)c2)c1 [Compound 62, N-[4-(3-Aminophenyl)-1,2,5-oxadiazol-3-yl]-3-fluorobenzamide]
P. falciparum NF54
  S.I. = IC50 (Cyt.)/IC50 (P.f.NF54): 6.107
P. falciparum NF54; [3]
  IC50: 32 µM
other
  melting point: 163 °C
[1]
  IC50 at 72 h: 195 µM

## Nc1cccc(-c2nonc2NC(=O)c2cccc(C(F)(F)F)c2)c1 [Compound 63, N-[4-(3-Aminophenyl)-1,2,5-oxadiazol-3-yl]-3-(trifluoromethyl)benzamide]
P. falciparum NF54
  S.I. = IC50 (Cyt.)/IC50 (P.f.NF54): 1.201
[1]
  IC50 at 72 h: 21.2 µM
